This note sets out measurements from US10961163B2, “Compositions and methods useful for enhancing the microbial conversion of nitrate into ammonium” (The Regents of the University of California, priority 2016, dated 2021).

For one assay, the system named is microbial enrichment cultures. In words: Ammonium production normalized by growth (NH4+/OD ratio) of microbial enrichment cultivated on individual carbon sources. The assay is classed as cell-based.
Conditions: not given
Consider `O.O.O=C([O-])CC(O)(CC(=O)[O-])C(=O)[O-].[Na+].[Na+].[Na+]` [Trisodium citrate dihydrate], for which the Ammonium/OD ratio turned out to be 1.73.
Same read-out and setting: with L-tyrosine disodium salt the figure was 0.87.

Staying with this assay, now noted: average of 8 independent cultures amended with varying concentrations of the carbon source; ammonium by colorimetric (Bertholet) assay, growth by OD 600.
With `O=c1ccn([C@@H]2O[C@H](CO)[C@@H](O)[C@H]2O)c(=O)[nH]1` [Uridine], the Ammonium/OD ratio was 0.96.
Consider `OC[C@@H](O)[C@H](O)[C@@H](O)CO` [Xylitol], for which the Ammonium/OD ratio came out at 1.13.
On to `OC[C@H]1O[C@@H]2O[C@H]3[C@H](O)[C@@H](O)[C@@H](O[C@H]4[C@H](O)[C@@H](O)[C@@H](O[C@H]5[C@H](O)[C@@H](O)[C@@H](O[C@H]6[C@H](O)[C@@H](O)[C@@H](O[C@H]7[C@H](O)[C@@H](O)[C@@H](O[C@H]1[C@H](O)[C@H]2O)O[C@@H]7CO)O[C@@H]6CO)O[C@@H]5CO)O[C@@H]4CO)O[C@@H]3CO` [a-Cyclodextrin], for which the Ammonium/OD ratio was 1.07.
In the case of `O.O=C([O-])CCC(=O)C(=O)[O-].[Na+].[Na+]` [a-Ketoglutaric acid disodium salt hydrate], the Ammonium/OD ratio was found to be 1.26.
Regarding `O[C@H]1[C@H](O)[C@@H](O)[C@H](O)[C@@H](O)[C@H]1O` [m-Inositol], the Ammonium/OD ratio is 1.25.
Consider D-Salicin, for which the Ammonium/OD ratio is 1.35.
For Gelatin, the Ammonium/OD ratio came to 0.85.

Another assay concerns microbial enrichment cultures. The assay can be described thus: Inhibitory potency (IC50) of inorganic compounds against growth and ammonium production, microbial enrichment with yeast extract.
Conditions: not given
The assay is classed as cell-based.
`CC(=O)c1ccc(O)cc1` [4-Hydroxyacetophenone]: the “NH4^+ IC50/growth IC50 ratio” value came to 1.3700.
As to `Cl.N` [Ammonium chloride], the “NH4^+ IC50/growth IC50 ratio” value is on record as 1.0157.
Regarding `N.N.O.O=S(O)O` [Ammonium sulfite monohydrate], the “NH4^+ IC50/growth IC50 ratio” value is on record as 2.0739.
On the same count and under the same terms, with `O.O.O.O.O.[Cd+2].[Cd+2].[Cl-].[Cl-].[Cl-].[Cl-]` [Cadmium chloride hemipentahydrate] the figure was 0.2809.
Consider `[Ce+3].[Cl-].[Cl-].[Cl-]` [Cerium(III) chloride], for which the “NH4^+ IC50/growth IC50 ratio” value was 0.0189.
For `[Cl-].[Cs+]` [Cesium chloride], the “NH4^+ IC50/growth IC50 ratio” value is listed as 30.1708.
The same measure, in the same setting: the same measure for `O.O.O.O.O.O.[Cl][Cr]([Cl])[Cl]` [Chromium(III) Chloride Hexahydrate]: 0.0003; for `O.O.O.O.O.O.[Cl-].[Cl-].[Co+2]` [Cobalt chloride hexahydrate]: 22.1846; for `[Cl-].[Cl-].[Cl-].[Eu+3]` [Europium(III) chloride]: 0.1036.
The same measure, in the same setting: the same measure for `[Cl-].[Cl-].[Cl-].[Ga+3]` [Gallium(III)chloride]: 1.0037; for `Cl.NO` [Hydroxylamine hydrochloride]: 0.3854; for `[Cl][Pb][Cl]` [Lead(II)chloride]: 0.0174.
Same read-out and setting: with `[Cl-].[Li+]` [Lithium chloride] the figure was 3.4054.
As to `[Cl-].[K+]` [Potassium Chloride], the “NH4^+ IC50/growth IC50 ratio” value is on record as 0.4776.
For `O.O=[Te]([O-])[O-].[K+].[K+]` [Potassium tellurite hydrate], the “NH4^+ IC50/growth IC50 ratio” value came out at 0.1044.
The same measure, in the same setting: the same measure for `O=S(=O)([O-])CCBr.[Na+]` [Sodium 2-bromoethanesulfonate]: 5.3024; for `[Na+].[O-][Cl+2]([O-])[O-]` [Sodium Chlorate]: 1.9090.
On to `[Cl-].[Na+]` [Sodium Chloride], for which the “NH4^+ IC50/growth IC50 ratio” value worked out at 21.9487.
For the molecule `O.O.O.O.O.O.O.O=[As]([O-])([O-])O.[Na+].[Na+]` [Sodium arsenate dibasic heptahydrate], the “NH4^+ IC50/growth IC50 ratio” value is on record as 3.2618.
On to `O=C([O-])O.[Na+]` [Sodium bicarbonate], for which the “NH4^+ IC50/growth IC50 ratio” value is recorded as 0.3242.
`O=C([O-])[O-].[Na+].[Na+]` [Sodium carbonate]: the “NH4^+ IC50/growth IC50 ratio” value was found to be 0.5039.
`C[C@H](CCC(=O)[O-])[C@H]1CC[C@H]2[C@@H]3[C@H](O)C[C@@H]4C[C@H](O)CC[C@]4(C)[C@H]3C[C@H](O)[C@]12C.O.[Na+]` [Sodium cholate hydrate]: the “NH4^+ IC50/growth IC50 ratio” value came to 5.9537.
As to `O=[As][O-].[Na+]` [Sodium m-arsenite], the “NH4^+ IC50/growth IC50 ratio” value was 3.9664.
Take `CS(=O)(=O)[O-].[Na+]` [Sodium methanesulfonate]: the “NH4^+ IC50/growth IC50 ratio” value is 0.4289.
`[Na+].[Na+].[O]=[Mo](=[O])([O-])[O-]` [Sodium molybdate]: the “NH4^+ IC50/growth IC50 ratio” value was 6.7259.
Same read-out and setting: the same measure for `O=[N+]([O-])[O-].[Na+]` [Sodium nitrate]: 3.4080; for `O=NO` [Sodium nitrite]: 0.3023; for `[O-][Cl+3]([O-])([O-])O` [Sodium perchlorate monohydrate]: 5.2779.
In the case of `[Na+].[O-][I+3]([O-])([O-])[O-]` [Sodium periodate], the “NH4^+ IC50/growth IC50 ratio” value stood at 7.8824.
`O.O=P([O-])(O)O.[Na+]` [Sodium phosphate monobasic monohydrate]: the “NH4^+ IC50/growth IC50 ratio” value was found to be 0.3418.
On to `O=[PH](O)O` [Sodium phosphite dibasic pentahydrate], for which the “NH4^+ IC50/growth IC50 ratio” value is 1.3336.
As to `O=[Se](=O)(O)O` [Sodium selenate], the “NH4^+ IC50/growth IC50 ratio” value came out at 10.0581.
The same measure, in the same setting: with `O.O.O.O.O.O=[Se]([O-])[O-].[Na+].[Na+]` [Sodium selenite pentahydrate] the figure was 0.2998; with `O=S(=O)([O-])[O-].[Na+].[Na+]` [Sodium sulfate], 1.0000; with `O.O.O.O.O.O=S([O-])([O-])=S.[Na+].[Na+]` [Sodium thiosulfate pentahydrate], 0.5741.
Regarding `[Cl-].[Cl-].[Sr+2]` [Strontium chloride], the “NH4^+ IC50/growth IC50 ratio” value stood at 3.3568.
Consider `CC(=O)[O-].[Tl+]` [Thallium(I) acetate], for which the “NH4^+ IC50/growth IC50 ratio” value is on record as 0.3751.
On the same count and under the same terms, with `[Cl-].[Cl-].[Zn+2]` [Zinc chloride] the figure was 0.1037; with `O=[Te](=O)([O-])[O-].[K+].[K+]` [potassium tellurate], 1.7673.
The same measure, in the same setting: the same measure for `[Cl-].[Rb+]` [rubidium chloride]: 1.4483; for `O=S(=O)([O-])[O-].[Ag+].[Ag+]` [silver sulfate]: 1.9192; for `[Br-].[Na+]` [sodium bromide]: 0.5766.
Same read-out and setting: with `[F-].[Na+]` [sodium fluoride] the figure was 1.6628; with `[I-].[Na+]` [sodium iodide], 0.2617.
On to `O=S([O-])[O-].[Na+].[Na+]` [sodium sulfite], for which the “NH4^+ IC50/growth IC50 ratio” value turned out to be 2.4699.
Consider Barium chloride dihydrate, for which the “NH4^+ IC50/growth IC50 ratio” value is given as 0.1756.
As for Calcium chloride dihydrate, the “NH4^+ IC50/growth IC50 ratio” value is 0.1455.
Consider Manganese (II) chloride tetrahydrate, for which the “NH4^+ IC50/growth IC50 ratio” value is 0.0037.
On to Nickel (II) chloride hexahydrate, for which the “NH4^+ IC50/growth IC50 ratio” value was 53.6273.
Same read-out and setting: with Sodium Chlorite the figure was 1.2683.
Sodium deoxycholate monohydrate: the “NH4^+ IC50/growth IC50 ratio” value was 0.0027.
Consider Sodium metavanadate, for which the “NH4^+ IC50/growth IC50 ratio” value is listed as 13.0898.
In the case of Sodium thiophosphate tribasic hydrate, the “NH4^+ IC50/growth IC50 ratio” value is listed as 0.8963.
Take Sodium tungstate dihydrate: the “NH4^+ IC50/growth IC50 ratio” value came out at 1.8289.

Staying with this assay, now noted: microbial enrichment with complex carbon source (yeast extract), serial dilutions of inorganic compound; higher ratio favors ammonium production.
On to `O=C1c2ccc(S(=O)(=O)O)cc2C(=O)c2cc(S(=O)(=O)O)ccc21` [AQDS, 9,10-Anthraquinone-2,7-disulphonic acid], for which the “NH4^+ IC50/growth IC50 ratio” value came out at 6.4905.
`O=C(O)CC(NCCNC(CC(=O)O)C(=O)O)C(=O)O` (stereo not shown) [Ethylenediamine-N,N′-disuccinic acid]: the “NH4^+ IC50/growth IC50 ratio” value is given as 44.3418.
Regarding `[Cl][Fe]([Cl])[Cl]` [Ferric chloride], the “NH4^+ IC50/growth IC50 ratio” value is given as 0.2642.
On the same count and under the same terms, with `O=C(O)c1cc(O)c(O)c(O)c1` [Gallic Acid] the figure was 4.9374.
Regarding `O=C(O)CN(CC(=O)O)CC(=O)O` [Nitrilotriacetic acid], the “NH4^+ IC50/growth IC50 ratio” value worked out at 0.4756.
In the case of `[Cl][Pd][Cl]` [Palladium(II) chloride], the “NH4^+ IC50/growth IC50 ratio” value was 0.4739.
For `O=S(=O)([O-])CCS.[Na+]` [Sodium 2-mercaptoethanesulfonate], the “NH4^+ IC50/growth IC50 ratio” value came out at 13.0401.
Consider `OCl` [Sodium hypochlorite], for which the “NH4^+ IC50/growth IC50 ratio” value is 0.0048.
Regarding `O=P([O-])(O)OP(=O)([O-])O.[Na+].[Na+]` [Sodium pyrophosphate dibasic], the “NH4^+ IC50/growth IC50 ratio” value is 0.6988.
Take `COc1cc(CO)ccc1O` [Vanillyl Alcohol]: the “NH4^+ IC50/growth IC50 ratio” value stood at 2.0632.
On to `CS(C)(=O)=O` [dimethyl sulfone], for which the “NH4^+ IC50/growth IC50 ratio” value is 2.0187.
On the same count and under the same terms, the same measure for Aluminum chloride hydrate: 0.0961.
For copper (II) chloride dihydrate, the “NH4^+ IC50/growth IC50 ratio” value turned out to be 0.1069.
